According to article PMC4769701, “Discovery and characterization of a high-affinity and high-specificity peptide ligand LXY30 for in vivo targeting of α3 integrin-expressing human tumors” (EJNMMI Research, 2016):
Positions of bridges follow the written chain, without caps; N, C: chain ends. Non-standard residues stand in square brackets, D forms with d. Residues, ends and D or L forms follow the SMILES beside them. Phe(3,4,5-F3) = N[C@@H](Cc1cc(F)c(F)c(F)c1)C(=O)O; Phe(3,5-F2) = N[C@@H](Cc1cc(F)cc(F)c1)C(=O)O; Hyp = O=C(O)[C@@H]1C[C@@H](O)CN1

Legend:
[1] = molecular target: T1, α3β1 integrin-expressing U-87MG glioblastoma cells (Homo sapiens, UniProt P26006); experiment: biochemical; format: binding; conditions: for Relative binding index: peptide 0.4 μM competing with 0.5 μM LXY1-biotin on U-87MG cells, relative to LXY1, greater RBI = higher affinity; for IC50: series of concentrations competing with 0.5 μM LXY1-biotin binding to U-87MG cells
T1 construct: we incubated U-87MG cells which express α3β1 integrin; endogenous in cells; host or cells: U-87MG human glioblastoma cells
T1 sequence (P26006 33-872 limits assumed): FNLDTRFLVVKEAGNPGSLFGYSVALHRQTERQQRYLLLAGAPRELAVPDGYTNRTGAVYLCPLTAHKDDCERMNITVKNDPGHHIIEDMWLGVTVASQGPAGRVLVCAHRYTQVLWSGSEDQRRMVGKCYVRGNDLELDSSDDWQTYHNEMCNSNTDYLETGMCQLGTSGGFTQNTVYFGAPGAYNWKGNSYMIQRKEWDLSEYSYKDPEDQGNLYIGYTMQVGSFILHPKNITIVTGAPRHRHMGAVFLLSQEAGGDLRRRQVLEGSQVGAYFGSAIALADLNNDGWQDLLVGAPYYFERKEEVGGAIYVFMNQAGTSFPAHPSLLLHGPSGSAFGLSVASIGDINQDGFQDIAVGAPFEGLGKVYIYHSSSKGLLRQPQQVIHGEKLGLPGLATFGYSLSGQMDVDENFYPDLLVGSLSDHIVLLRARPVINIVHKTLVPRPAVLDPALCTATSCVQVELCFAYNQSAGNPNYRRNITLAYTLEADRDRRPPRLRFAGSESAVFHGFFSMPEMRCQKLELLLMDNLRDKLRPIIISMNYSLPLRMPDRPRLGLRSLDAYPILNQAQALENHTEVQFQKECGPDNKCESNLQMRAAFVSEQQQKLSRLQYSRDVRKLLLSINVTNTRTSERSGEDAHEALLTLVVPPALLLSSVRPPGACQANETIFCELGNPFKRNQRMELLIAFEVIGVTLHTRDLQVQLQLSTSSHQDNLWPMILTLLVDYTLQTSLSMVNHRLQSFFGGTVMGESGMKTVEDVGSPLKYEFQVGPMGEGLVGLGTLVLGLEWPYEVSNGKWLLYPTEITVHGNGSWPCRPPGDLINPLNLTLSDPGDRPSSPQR
T1 sequence (P26006 873-1051 partner limits assumed): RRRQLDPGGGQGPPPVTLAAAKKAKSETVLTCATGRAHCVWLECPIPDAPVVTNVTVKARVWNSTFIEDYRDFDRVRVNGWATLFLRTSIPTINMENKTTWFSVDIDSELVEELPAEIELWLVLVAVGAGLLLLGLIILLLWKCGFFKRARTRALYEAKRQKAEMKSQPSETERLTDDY
T1 sequence (P05556 21-798 partner): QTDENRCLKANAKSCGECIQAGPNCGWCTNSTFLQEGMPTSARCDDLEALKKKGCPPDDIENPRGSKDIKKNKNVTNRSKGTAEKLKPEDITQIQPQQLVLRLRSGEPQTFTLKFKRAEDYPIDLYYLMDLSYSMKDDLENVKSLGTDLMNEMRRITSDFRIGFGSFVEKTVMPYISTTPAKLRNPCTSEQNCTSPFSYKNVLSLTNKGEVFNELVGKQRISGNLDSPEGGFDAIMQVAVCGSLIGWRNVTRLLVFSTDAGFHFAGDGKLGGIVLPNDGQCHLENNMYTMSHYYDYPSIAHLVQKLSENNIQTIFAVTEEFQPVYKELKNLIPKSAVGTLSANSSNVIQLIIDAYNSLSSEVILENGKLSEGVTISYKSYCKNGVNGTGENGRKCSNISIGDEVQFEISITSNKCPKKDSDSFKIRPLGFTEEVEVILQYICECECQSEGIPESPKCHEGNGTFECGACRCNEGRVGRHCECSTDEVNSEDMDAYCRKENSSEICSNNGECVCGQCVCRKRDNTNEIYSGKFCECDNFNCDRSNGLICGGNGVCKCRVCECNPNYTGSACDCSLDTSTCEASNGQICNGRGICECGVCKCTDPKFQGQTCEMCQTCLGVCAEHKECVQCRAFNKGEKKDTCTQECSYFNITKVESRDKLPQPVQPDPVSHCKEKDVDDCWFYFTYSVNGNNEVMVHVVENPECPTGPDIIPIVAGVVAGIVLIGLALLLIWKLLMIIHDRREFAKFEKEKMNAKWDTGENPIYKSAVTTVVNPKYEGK
Description: (§1) Confluent tumor cells (80-90 %) were dissociated with 0.05 % trypsin-EDTA and neutralized with culture medium. To determine the expression of α3 and β1 integrins, 1 μg of anti-α3 or anti-β1 antibody was mixed with 1 million cells for 30 min, followed by anti-mouse IgG-PE incubation and flow cytometry (Coulter XL-MCL). […] Then each sample was washed three times with 1 mL PBS containing 1 % FBS. Samples thereafter were incubated with a 1:500 dilution of streptavidin-PE (1 mg/mL) for 30 min on ice followed by a single wash with 1 mL of PBS containing 1 % FBS. Finally, the samples in PBS were analyzed by flow cytometry. […] The mixture was then incubated with cancer cells followed by streptavidin-PE. Samples were analyzed by flow cytometry, and mean fluorescence intensity (MFI) was decided for each individual sample. […] For blocking experiments, the samples were incubated with non-biotinylated LXY30, anti-α3, or anti-β1 antibody for 30 min prior to incubation with 20 nM biotinylated LXY30.

[2] = molecular target: T2, α3 subunit of α3β1 integrin on U-87MG cells (Homo sapiens, UniProt P26006); experiment: Blocking of LXY30-biotin binding to U-87MG cells, flow cytometry; conditions: 100 μM free peptide pre-incubated 30 min before 20 nM LXY30-biotin
T2 construct: we incubated U-87MG cells which express α3β1 integrin; endogenous in cells; host or cells: U-87MG human glioblastoma cells
T2 sequence (P26006 33-872 limits assumed): as the sequence (P26006 33-872 limits assumed) above
T2 sequence (P26006 873-1051 partner limits assumed): as the sequence (P26006 873-1051 partner limits assumed) above
T2 sequence (P05556 21-798 partner): as the sequence (P05556 21-798 partner) above
Description: as §1, with “(80–90” for “(80-90”
Fig. 2 Synthesis and chemical structures of several peptide conjugates and binding specificity of LXY30 to U-87MG cells. The synthesis and chemical structures of peptide conjugates LXY30-biotin, LXY30-FITC, and scrambled-LXY30-FITC (S-LXY30-FITC) used for in vitro and in vivo characterization, as well as imaging studies were shown (a). […]

[3] = system: subcutaneous U-87MG xenograft tumors; experiment: In vivo NIRF optical imaging, subcutaneous xenograft; design: species or system nude mice; conditions: for improvement in tumor targeting over LXY1: optical imaging, U-87MG glioblastoma xenograft model, data not shown
Description: Halogen lamp light source was set to maximum.

[4] = In vitro stability assay in human plasma; format: in vitro ADME; conditions: 90% human plasma (EDTA, healthy donors); 200 µM in 90% human plasma, 37°C, up to 8 days, RP-HPLC; t1/2=1/kobs·ln(2)
Description: Figure S3. The in vitro stability of LXY30 in human plasma. LXY30 was incubated with 90% human plasma from healthy donor at 37°C for up to 8 days. The peptide concentrations were determined by integration of the LXY30 peak (area) from reversed-phase high-performance liquid chromatography (RP-HPLC) chromatograms at UV 214 nm. The half-life of LXY30 in the plasma was calculated as 16.0 days using the formula t1/2=1/kobs·ln(2). Assays were performed in triplicate.
Human plasma was separated from the peripheral blood collected in the EDTA-containing blood collection tube from healthy donors. One hundred microliters of LXY30 solution (2 mM in water) was mixed with 900 µL of plasma (final concentration of LXY30 was 200 µM) and incubated at 37°C under sterile conditions. […] A control plasma sample without LXY30 but treated in the same manner was also analyzed. […]
RP-HPLC analysis was performed on the Waters 2996 HPLC system equipped with a Luna® analytical column from Phenomenex (5 µm, C18, 100 A°, 250 x 4.6 mm). […] The relative concentrations of the remaining LXY30 were analyzed by the integration of the absorbance at 214 nm (area).
Half-life (t1/2) for LXY30 in the plasma solution was calculated from plots of the natural logarithm of the residual concentration against time using the formula t1/2=1/kobs·ln(2), where kobs is the apparent first order rate constant for the observed degradation.

A549 = experiment: LXY30 binding by flow cytometry; design: species or system human; conditions: 1µM LXY30; A549, lung, adenocarcinoma
Description: as §1, with “(80–90” for “(80-90”
(§2) *(MFI W/ LXY30)/ (MFI W/O LXY30): Mean Fluorescence Intensity of cells incubated with 1µM LXY30 divided by Mean Fluorescence Intensity of cells without incubation with LXY30.
(§3) Mean Fluorescence Intensity (MFI) was used as the quantitative measurement. The binding strength was grouped into five categories based on the value. “0”: 1 “1+”: 1.1~4.9 “2+”: 5~19.9 “3+”: 20~79.9 “4+”: > or = 80-fold

BT-20 = experiment: LXY30 binding by flow cytometry; design: species or system human; conditions: 1µM LXY30; BT-20, breast, basal like
Description: as §1, with “(80–90” for “(80-90”
as §2, §3

H1650 = experiment: LXY30 binding by flow cytometry; design: species or system human; conditions: 1µM LXY30; H1650, lung, bronchoalveolar
Description: as §1, with “(80–90” for “(80-90”
as §2, §3

H1975 = experiment: LXY30 binding by flow cytometry; design: species or system human; conditions: 1µM LXY30; H1975, lung, adenocarcinoma
Description: as §1, with “(80–90” for “(80-90”
as §2, §3

H2228 = experiment: LXY30 binding by flow cytometry; design: species or system human; conditions: 1µM LXY30; H2228, lung, adenocarcinoma
Description: as §1, with “(80–90” for “(80-90”
as §2, §3

H3255 = experiment: LXY30 binding by flow cytometry; design: species or system human; conditions: 1µM LXY30; H3255, lung, adenocarcinoma
Description: as §1, with “(80–90” for “(80-90”
as §2, §3

H460 = experiment: LXY30 binding by flow cytometry; design: species or system human; conditions: 1µM LXY30; H460, lung, large cell
Description: as §1, with “(80–90” for “(80-90”
as §2, §3

HCC827 = experiment: LXY30 binding by flow cytometry; design: species or system human; conditions: 1µM LXY30; HCC827, lung, adenocarcinoma
Description: as §1, with “(80–90” for “(80-90”
as §2, §3

MCF7 = experiment: LXY30 binding by flow cytometry; design: species or system human; conditions: 1µM LXY30; MCF7, breast, luminal A
Description: as §1, with “(80–90” for “(80-90”
as §2, §3

MDA-MB 231 = experiment: LXY30 binding by flow cytometry; design: species or system human; conditions: 1µM LXY30; MDA-MB 231, breast, basal like
Description: as §1, with “(80–90” for “(80-90”
as §2, §3

SKBR3 = experiment: LXY30 binding by flow cytometry; design: species or system human; conditions: 1µM LXY30; SKBR3, breast, HER2
Description: as §1, with “(80–90” for “(80-90”
as §2, §3

T47D = experiment: LXY30 binding by flow cytometry; design: species or system human; conditions: 1µM LXY30, breast, luminal A
Description: as §1, with “(80–90” for “(80-90”
as §2, §3

Compound: N=C(N)NCCC[C@H](NC(=O)[C@H]1CSSC[C@@H](N)C(=O)N[C@H](CC(=O)O)C(=O)NCC(=O)N[C@@H](Cc2cc(F)cc(F)c2)C(=O)NCC(=O)N2C[C@H](O)C[C@H]2C(=O)N[C@@H](CC(N)=O)C(=O)N1)C(N)=O [LXY30, cdG-Phe(3,5-diF)-G-Hyp-NcR] (H-[dC][dD]G[Phe(3,5-F2)]G[Hyp]N[dC]R-NH2; disulfide 1-8; N-terminus assumed)
- fold higher binding affinity compared to LXY1 ([1]; U-87MG cells, from IC50 values): 44 fold
- Relative binding index [1]: 1.68 ± 0.10
- IC50 [1]: 80 ± 10 nM
- blocking of LXY30-biotin binding by free peptide [2]: inhibited or prevented
- MFI of tumor, fold over LXY1 ([3]; tail vein, 1.8 nmol complex, ROI on xenograft tumor): 1.4 folds
- half-life at 200 µM [4]: 16 days
- (MFI W/ LXY30)/ (MFI W/O LXY30) (A549): 4+ (“4+”: > or = 80-fold)
- (MFI W/ LXY30)/ (MFI W/O LXY30) (BT-20): 2+ (“2+”: 5~19.9)
- (MFI W/ LXY30)/ (MFI W/O LXY30) (H1650): 4+ (“4+”: > or = 80-fold)
- (MFI W/ LXY30)/ (MFI W/O LXY30) (H1975): 4+ (“4+”: > or = 80-fold)
- (MFI W/ LXY30)/ (MFI W/O LXY30) (H2228): 4+ (“4+”: > or = 80-fold)
- (MFI W/ LXY30)/ (MFI W/O LXY30) (H3255): 2+ (“2+”: 5~19.9)
- (MFI W/ LXY30)/ (MFI W/O LXY30) (H460): 1+ (“1+”: 1.1~4.9)
- (MFI W/ LXY30)/ (MFI W/O LXY30) (HCC827): 4+ (“4+”: > or = 80-fold)
- (MFI W/ LXY30)/ (MFI W/O LXY30) (MCF7): 2+ (“2+”: 5~19.9)
- (MFI W/ LXY30)/ (MFI W/O LXY30) (MDA-MB 231): 4+ (“4+”: > or = 80-fold)
- (MFI W/ LXY30)/ (MFI W/O LXY30) (SKBR3): 1+ (“1+”: 1.1~4.9)
- (MFI W/ LXY30)/ (MFI W/O LXY30) (T47D): 1+ (“1+”: 1.1~4.9)

Compound: cdG-Tyr(3-NO2)-G-Hyp-Nc [LXY3]
- improvement in tumor targeting over LXY1 [3]: did not show improvement

Compound: NC(=O)C[C@@H]1NC(=O)[C@@H]2C[C@@H](O)CN2C(=O)CNC(=O)[C@H](Cc2cc(F)cc(F)c2)NC(=O)CNC(=O)[C@@H](CC(=O)O)NC(=O)[C@H](N)CSSC[C@H](C(N)=O)NC1=O [LXY4, cdG-Phe(3,5-diF)-G-Hyp-Nc] (H-[dC][dD]G[Phe(3,5-F2)]G[Hyp]N[dC]-NH2; disulfide 1-8; N-terminus assumed)
- Relative binding index [1]: 1.36 ± 0.11
- IC50 [1]: 410 ± 30 nM
- improvement in tumor targeting over LXY1 [3]: did not show improvement

Compound: N=C(N)NCCC[C@H](NC(=O)[C@H]1CSSC[C@@H](N)C(=O)N[C@H](CC(=O)O)C(=O)NCC(=O)N[C@@H](Cc2cc(F)c(F)c(F)c2)C(=O)NCC(=O)N2C[C@H](O)C[C@H]2C(=O)N[C@@H](CC(N)=O)C(=O)N1)C(N)=O [LXY7] (H-[dC][dD]G[Phe(3,4,5-F3)]G[Hyp]N[dC]R-NH2; disulfide 1-8; N-terminus assumed)
- Relative binding index [1]: 1.62 ± 0.10
- IC50 [1]: 130 ± 12 nM
